Source: US20140242093A1, “METHODS AND COMPOSITIONS FOR MODULATING THE INNATE IMMUNE RESPONSE AND/OR MYOGENESIS IN A MAMMALIAN SUBJECT” (FRED HUTCHINSON CANCER RESEARCH CENTER, priority 2011, published 2014)

Tests used:
Human myoblasts = test: Expression array of the innate immune response to lentiviral infection versus uninfected cells; type: cell-based
Description: RNA was harvested from the lenti-viral infected cells and uninfected control cells at 24 hours after infection.

[1] = system: HCT116, primary dendritic cells, JJ and FS; test: Real-time PCR of PRAMEF1 in transduced HCT116, primary dendritic cells, JJ and FS cell lines; type: cell-based, human
Description: HCT116 cells were infected with a control lenti-GFP or with lenti-DUX4-fl and the abundance of PRAMEF1 mRNA measured relative to a constitutively expressed gene, RPL13a.
Primary dendritic cells and the tumor cell lines derived from patients with chondrosarcomas designated JJ and FS (described in Jagasia, et al., 1996, supra) were transduced with lentiviral constructs expressing a control gene, green fluorescent protein (GFP), or DUX4fl. PRAMEF1 mRNA was measured by real-time PCR relative to a constitutively expressed control, RPL13a.

[2] = system: Cultured control human myoblasts; test: Beta-defensin 3 and innate immune response, real-time qPCR of IFIH1, ISG20, DEFB103; type: cell-based
Description: Cultured control human myoblasts were grown to 80% confluence and infected with equivalent titers of lenti-GFP, lenti-DUX4-s and lenti-DUX4-fl in growth media supplemented with 8 μg/mL polybrene. Expression of innate immune responsive genes including IFIH1 (MDA5), ISG20 and DEFB103 were assessed by real-time qPCR as previously described at 24 hours (primer sequences below). For conditioned media, cells were infected with lenti-DUX4-fl for 12 hours, thoroughly washed 3 times with PBS and switched to fresh growth media to condition for 12 hours. Control conditioned media was produced from cells not infected with any lentivirus. Myoblasts were infected with lenti-GFP in either control conditioned media, lenti-DUX4-fl conditioned media or regular growth media supplemented with 1 μM human β-defensin 3 (Peptides International, Louisville, Ky.). Expression of innate immune responsive genes were examined after 24 hours.

[3] = system: cultured control skeletal muscle; test: RT-PCR validation of microarray gene targets; type: cell-based, human; settings: FIG. 1
Description: RNA was collected from cultured control skeletal muscle either transduced with a DUX4-fl expressing lentivirus (+) or not transduced (−). RPL13A was used as an internal standard. Total RNA was treated with DNase using TURBO DNA-free kit (Ambion) according to manufacturer's protocol. One μg of DNase-treated RNA was reverse transcribed to first strand cDNA with SuperScript III and anchored oligo dT (Invitrogen) at 52° C. for 1 h. Residual RNA was digested with RNase H at 37° C. for 20 min. cDNA was used in various PCR and real-time PCR reactions with primers listed below.
The primers shown below were designed to span exon-exon junctions where possible. Primers from select genes were also used in real-time PCR reactions to examine endogenous expression of targets in FSHD versus control samples described separately.

DUX4-fl: full-length DUX4 protein (SEQ ID NO:110), expressed from lentiviral or pCS2 vectors or in vitro translated
IL1R1 expression ratio vs GFP (.fc) (Human myoblasts; gene IL1R1 NM_000877.2, vs lenti-GFP, 24 hours after infection): −1.34 log2 fold change
IL1R1 expression ratio vs NoLenti (.fc) (Human myoblasts; gene IL1R1 NM_000877.2, vs uninfected, 24 hours after infection): 0.09 log2 fold change
IL7R expression ratio vs GFP (.fc) (Human myoblasts; gene IL7R NM_002185.2, vs lenti-GFP, 24 hours after infection): −2.26 log2 fold change
IL7R expression ratio vs NoLenti (.fc) (Human myoblasts; gene IL7R NM_002185.2, vs uninfected, 24 hours after infection): −0.49 log2 fold change
IL8 expression ratio vs GFP (.fc) (Human myoblasts; gene IL8 NM_000584.2, vs lenti-GFP, 24 hours after infection): −3.88 log2 fold change
IL8 expression ratio vs NoLenti (.fc) (Human myoblasts; gene IL8 NM_000584.2, vs uninfected, 24 hours after infection): −0.13 log2 fold change
IL18BP expression ratio vs GFP (.fc) (Human myoblasts; gene IL18BP NM_173042.2, vs lenti-GFP, 24 hours after infection): −1.25 log2 fold change
IL18BP expression ratio vs NoLenti (.fc) (Human myoblasts; gene IL18BP NM_173042.2, vs uninfected, 24 hours after infection): 0.85 log2 fold change
IRF7 expression ratio vs GFP (.fc) (Human myoblasts; gene IRF7 NM_004029.2, vs lenti-GFP, 24 hours after infection): −1.96 log2 fold change
IRF7 expression ratio vs NoLenti (.fc) (Human myoblasts; gene IRF7 NM_004029.2, vs uninfected, 24 hours after infection): 1.02 log2 fold change
IRF9 expression ratio vs GFP (.fc) (Human myoblasts; gene IRF9 NM_006084.4, vs lenti-GFP, 24 hours after infection): −2.25 log2 fold change
IRF9 expression ratio vs NoLenti (.fc) (Human myoblasts; gene IRF9 NM_006084.4, vs uninfected, 24 hours after infection): 0.20 log2 fold change
MX1 expression ratio vs GFP (.fc) (Human myoblasts; gene MX1 NM_002462.2, vs lenti-GFP, 24 hours after infection): −5.67 log2 fold change
MX1 expression ratio vs NoLenti (.fc) (Human myoblasts; gene MX1 NM_002462.2, vs uninfected, 24 hours after infection): 1.58 log2 fold change
NFIL3 expression ratio vs GFP (.fc) (Human myoblasts; gene NFIL3 NM_005384.2, vs lenti-GFP, 24 hours after infection): −1.82 log2 fold change
NFIL3 expression ratio vs NoLenti (.fc) (Human myoblasts; gene NFIL3 NM_005384.2, vs uninfected, 24 hours after infection): 0.07 log2 fold change
NFKBIA expression ratio vs GFP (.fc) (Human myoblasts; gene NFKBIA NM_020529.1, vs lenti-GFP, 24 hours after infection): −3.00 log2 fold change
NFKBIA expression ratio vs NoLenti (.fc) (Human myoblasts; gene NFKBIA NM_020529.1, vs uninfected, 24 hours after infection): −0.83 log2 fold change
NFKBIZ expression ratio vs GFP (.fc) (Human myoblasts; gene NFKBIZ NM_001005474.1, vs lenti-GFP, 24 hours after infection): −1.57 log2 fold change
NFKBIZ expression ratio vs NoLenti (.fc) (Human myoblasts; gene NFKBIZ NM_001005474.1, vs uninfected, 24 hours after infection): 0.30 log2 fold change
STAT1 expression ratio vs GFP (.fc) (Human myoblasts; gene STAT1 NM_007315.2, vs lenti-GFP, 24 hours after infection): −2.92 log2 fold change
STAT1 expression ratio vs NoLenti (.fc) (Human myoblasts; gene STAT1 NM_007315.2, vs uninfected, 24 hours after infection): 1.08 log2 fold change
STAT2 expression ratio vs GFP (.fc) (Human myoblasts; gene STAT2 NM_005419.2, vs lenti-GFP, 24 hours after infection): −2.69 log2 fold change
STAT2 expression ratio vs NoLenti (.fc) (Human myoblasts; gene STAT2 NM_005419.2, vs uninfected, 24 hours after infection): −0.77 log2 fold change
TLR3 expression ratio vs GFP (.fc) (Human myoblasts; gene TLR3 NM_003265.2, vs lenti-GFP, 24 hours after infection): −1.27 log2 fold change
TLR3 expression ratio vs NoLenti (.fc) (Human myoblasts; gene TLR3 NM_003265.2, vs uninfected, 24 hours after infection): −0.06 log2 fold change
TNFAIP2 expression ratio vs GFP (.fc) (Human myoblasts; gene TNFAIP2 NM_006291.2, vs lenti-GFP, 24 hours after infection): −1.59 log2 fold change
TNFAIP2 expression ratio vs NoLenti (.fc) (Human myoblasts; gene TNFAIP2 NM_006291.2, vs uninfected, 24 hours after infection): −0.42 log2 fold change
TNFAIP3 expression ratio vs GFP (.fc) (Human myoblasts; gene TNFAIP3 NM_006290.2, vs lenti-GFP, 24 hours after infection): −2.90 log2 fold change
TNFAIP3 expression ratio vs NoLenti (.fc) (Human myoblasts; gene TNFAIP3 NM_006290.2, vs uninfected, 24 hours after infection): −0.38 log2 fold change
TNFAIP6 expression ratio vs GFP (.fc) (Human myoblasts; gene TNFAIP6 NM_007115.2, vs lenti-GFP, 24 hours after infection): −2.21 log2 fold change
TNFAIP6 expression ratio vs NoLenti (.fc) (Human myoblasts; gene TNFAIP6 NM_007115.2, vs uninfected, 24 hours after infection): 1.63 log2 fold change
TNFRSF6B expression ratio vs GFP (.fc) (Human myoblasts; gene TNFRSF6B NM_032945.2, vs lenti-GFP, 24 hours after infection): −1.68 log2 fold change
TNFRSF6B expression ratio vs NoLenti (.fc) (Human myoblasts; gene TNFRSF6B NM_032945.2, vs uninfected, 24 hours after infection): −0.29 log2 fold change
TNFRSF10A expression ratio vs GFP (.fc) (Human myoblasts; gene TNFRSF10A NM_003844.2, vs lenti-GFP, 24 hours after infection): −1.13 log2 fold change
TNFRSF10A expression ratio vs NoLenti (.fc) (Human myoblasts; gene TNFRSF10A NM_003844.2, vs uninfected, 24 hours after infection): 0.07 log2 fold change
TNFRSF14 expression ratio vs GFP (.fc) (Human myoblasts; gene TNFRSF14 NM_003820.2, vs lenti-GFP, 24 hours after infection): −2.72 log2 fold change
TNFRSF14 expression ratio vs NoLenti (.fc) (Human myoblasts; gene TNFRSF14 NM_003820.2, vs uninfected, 24 hours after infection): −1.36 log2 fold change
TNFSF10 expression ratio vs GFP (.fc) (Human myoblasts; gene TNFSF10 NM_003810.2, vs lenti-GFP, 24 hours after infection): −1.13 log2 fold change
TNFSF10 expression ratio vs NoLenti (.fc) (Human myoblasts; gene TNFSF10 NM_003810.2, vs uninfected, 24 hours after infection): 0.14 log2 fold change
TNFSF13B expression ratio vs GFP (.fc) (Human myoblasts; gene TNFSF13B NM_006573.3, vs lenti-GFP, 24 hours after infection): −1.76 log2 fold change
TNFSF13B expression ratio vs NoLenti (.fc) (Human myoblasts; gene TNFSF13B NM_006573.3, vs uninfected, 24 hours after infection): 0.12 log2 fold change
number of lentivirus-induced genes whose induction is suppressed (Human myoblasts; out of 341): 317 genes
number of the 341 lenti-GFP induced genes induced 2-fold or more (Human myoblasts; vs uninfected cells, 24 hours): 34 genes
PRAMEF1 gene expression [1]: robust activation of the PRAMEF1 gene
expression of DEFB103A/B (β-defensin 3) ([2]; FIG. 7B): robustly induced expression of DEFB103A/B
induction of the innate immune response in myoblasts ([2]; RT-qPCR, similar titers, FIG. 7A): did not
number of DUX4-fl regulated genes with differential expression validated by RT-PCR [3]: 15 genes
